Laboratory results as given in patent US20250161312A1, “A METHOD FOR THE TREATMENT OF CHEMOTHERAPEUTIC DRUG-INDUCED NEPHROTOXICITY” (INSTITUT NATIONAL DE LA SANTÉ ET DE LA RECHERCHE MÉDICALE, priority 2022, published 2025).

How the values were obtained:
[1] = tested on: RPTEC/hTERT1 cells; experiment: Quantitative RT-PCR of Nrf2 and HO1 in RPTEC/hTERT1 cells; type: cell-based, human; conditions: in vitro
Experimental: (§1) FIG. 6. KW6002 alleviates the cisplatin-induced nephrotoxicity associated with apoptosis, lipid metabolism, and oxidative stress. (A) Tail moment assessed by comet assay; 50 cells/condition were analyzed. (B and C) KW6002 attenuates cisplatin-induced renal lipid accumulation, assessed by Red Oil staining. […] Results are the mean±SEM (n=6-9 mice/group). (F-H) KW6002 attenuated cisplatin-induced oxidative stress in RPTEC/hTERT1 cells. (F and G) Gene expression of Nrf2 (F) and HO1 (G). […] Results are the mean±SEM (n=3 independent experiments).
Total RNA from kidney samples was extracted with phenol/chloroform and subsequently precipitated in isopropanol as described previously (71). Total RNA from cultured renal cells was extracted using RNeasy Mini kit (Qiagen) following manufacturer's recommendations.
Reverse transcription was performed on 1 μg of RNA using high-capacity cDNA reverse transcription kit (Thermo Fisher), according the manufacturer's recommendation. Real time PCR was performed on a StepOne device using Taqman Gene Expression Master Mix (Thermo Fisher), following manufacturer's recommendations. […]

[2] = tested on: H1975 cells; experiment: Comet assay in H1975 cells; type: cell-based; conditions: FIG. 7E
Experimental: FIG. 7. […] Caspase 3/-7 activity (n=3 independent experiments) (A) and the number of γH2AX nuclear foci (n=36-63 nuclei/group) (B) were determined. […] Results are expressed as the mean±SEM (n=3 independent experiments). (E) Tail moment was assessed by comet assay. A total of 50 cells per condition were analyzed. *** P<0.001; 1-way ANOVA followed by Tukey's post hoc test. […] (I) KW6002 increased yH2AX expression in tumors from mice of the LLC1 syngeneic model. Quantification of nuclear yH2AX expression.
(§2) Treated cells were suspended (60,000 cells/mL) in low-melt agarose (1613111, Bio-Rad) 0.5% in PBS at 42° C. The suspension was then immediately spread on a comet slide (4250-200-03, R&D Systems). Agarose was allowed to cool down for 20 minutes at 4° C. Then, cell membranes were permeabilized with a lysis solution (2.5M NaCl, 100 mM EDTA, 10 mM Tris-HCl, 1% Triton X-100 [pH 10]) at 4° C. for 1 hour. […] The images were analyzed using an ImageJ in-home macro, in which the head (the nucleus) and tail (the DNA that migrated) of the comet were delimited to get the fluorescence intensity of the head, the fluorescence intensity of the tail, and the length of the tail. The calculation of tail moments was done using the following formula: (length of the comet tail×fluorescence intensity of the tail)/total fluorescence intensity (head+tail).

[3] = tested on: RPTEC/hTERT1 cells; experiment: Cell efflux (EFLUXX-ID) in RPTEC/hTERT1 cells; type: cell-based, human; conditions: cisplatin-treated cells, flow cytometry, FIG. 4C
Experimental: FIG. 4. […] (A) Platinum quantification (n=12-20/group) and relative expression of influx transporters (CTR1 and OCT2) and efflux transporters (ATP7B, MATE1, MATE2 and ABCC2; n=10-12/group) in kidney. (B) Platinum quantification (n=12-20/group) and relative expression of influx transporters (CTR1) and efflux transporters (ATP7B, MATE1, and ABCC2; n=5-6/group) in tumors. […] Results are the mean±SEM (n=3 independent experiments)
The basic cell efflux function was assessed using an EFLUXX-ID Green Multidrug Resistance Assay Kit (ENZO Life Sciences). Briefly, 2.5×10^5 cells/condition were collected, washed with PBS, and incubated with the EFLUXX-ID Green Detection Reagent for 30 minutes at 37° C., and then efflux was measured immediately by flow cytometry (CytoFLEX LX, Beckman Coulter). All experiments were performed in triplicate, with the measurement of 10,000 individual cells. Data were analyzed using Kaluza Analysis Software (Beckman Coulter).

[4] = tested on: RPTEC/hTERT1 cells; experiment: Comet assay in RPTEC/hTERT1 cells; type: cell-based, human; conditions: FIG. 6A
Experimental: as §1, §2

**Q.** Which “cisplatin-induced increase in expression of Nrf2” value ([1]; FIG. 6F) does the source give for `CCn1c(=O)c2c(nc(/C=C/c3ccc(OC)c(OC)c3)n2C)n(CC)c1=O` [KW-6002, 8-[(E)-2-(3,4-dimethoxyphenyl)vinyl]-1,3-diethyl-7-methyl-3,7-dihydro-1H-purine-2,6-dione] here?
**A.** The value was “normalized”.

**Q.** What about the “cisplatin-induced increase in expression of HO1” value ([1]; FIG. 6G) of the same compound?
**A.** The value was “normalized”.

**Q.** And the “DNA damage: tail moment” value [2]?
**A.** The value was “did not impede the antitumoral effect of cisplatin”.

**Q.** What about the efflux [3] of the same compound?
**A.** The efflux was “strongly enhanced”.

**Q.** And the “cisplatin-induced DNA damage (tail moment)” value [4]?
**A.** Its value is “inhibiting”.
